# Reference: patent publication US11471451B2, “Uses of crenolanib” (Arog Pharmaceuticals, Inc., priority 2019, dated 2022)
# What was measured:
# [1] = tested on: FLT3 Variants, FLT3 Activating Mutations, and Co-Occurring Mutations; assay: Example 1: single cell DNA sequencing (TAPESTRI) of longitudinal bone marrow samples; type: in vivo, human; details: for Variant allele frequency FLT3 D835E: D1 0%; for Variant allele frequency DNMT3A R882H / Variant allele frequency FLT3 D839G / Variant allele frequency KRAS G12D / Variant allele frequency NRAS G13V: D1 1%; for Variant allele frequency FLT3 N841K: D1 18%; for Variant allele frequency FLT3 A680V: D1 20%; for Variant allele frequency FLT3 ITD: D1 22%; for Variant allele frequency DNMT3A R882C: D1 41%; for Variant allele frequency NPM1 dupTCTG: D1 44%
# Experimental: In one aspect of the invention pertains to single cell sequencing analysis of recurrent AML genetic mutations that is performed using the […]™ platform. To use said platform, a cell suspension is introduced onto the platform using microfluidics, and each cell is then encapsulated in an oil droplet along with a protease to aid in DNA isolation. Cells are then lysed and loaded back onto the […]™ platform, where each single nucleus is encapsulated with a unique DNA based barcode linked to acrylamide-based beads and PCR master mix and primer sets against recurrent AML mutant genes in an oil droplet. These droplets are directly deposited in PCR tubes and exposed to UV light to release the barcodes. Subsequently the barcoded genomic DNA within the droplets can be amplified according to standard PCR amplification techniques. In this same aspect the PCR products are then isolated using standard molecular biology techniques and then libraries prepared for next-generation sequencing compatible with Illumina platforms (including MiSeq, HiSeq, and NovaSeq), followed by sequencing said libraries on one of the validated Illumina platforms (including MiSeq, HiSeq, and NovaSeq). In the same aspect, the sequencing contains at least 1,000,000 reads per sample, and the allele dropout out rate is at most 10%. Next-generation sequencing data can be analyzed at least one of but not limited to using […] Pipeline to generate genetic variant calls followed by […] Insight for final analysis including determining co-occurring genetic mutations, or standard next generation sequencing (NGS) analysis methods known to one skilled in the art.
# The present invention includes the follow method of preparing single cell DNA sequencing. One example is a single-cell multi-omic assay for detecting single nucleotide variants, copy number variants, and protein changes simultaneously from the same cell, such as […]™. Mononuclear cells were isolated from bone marrow samples via FICOLL-PAQUE® gradient, resuspended in a 10% DMSO solution and frozen at −20° C. until needed. Single cell suspensions were prepared from thawed mononuclear cell samples to final concentrations indicated by the manufacturer's instructions, then loaded onto the […]™ instrument. According to the manufacturer, the […]™ platform uses microfluidics to separate single cells, encapsulate each cell within a […] droplet, proteases are added to each droplet to aid in DNA isolation. Cell encapsulation, targeted PCR, and next generation library preparation were performed per the […]™ platform's manufacturer's instructions using the […]™ platform and the Thermo Fisher SimpliAmp thermal cycler (cat #A24811, or equivalent). The prepared single-cell DNA library was sequenced using Illumina's MiSeq instrument, per the manufacturer's instructions. Analysis of these next-generation sequencing data was performed by first processing the sequencing data using the […] Pipeline (available on the Mission Bio website) to ultimately generate variant calls. The resultant loom files are then imported into the […]™ bioinformatics software, Insight, which is used to identify relevant variants, including co-occurring and rare mutations.
# Longitudinal bone marrow samples obtained throughout the course of treatment were analyzed using single cell sequencing. […]
# [2] = tested on: FLT3-wildtype relapsed/refractory AML; assay: Example 2: FLT3-wildtype relapsed/refractory AML patient; crenolanib besylate with salvage chemotherapy; type: in vivo, human
# Experimental: A person was diagnosed with AML in 2016. […] Initially, the patient was treated with a standard cytarabine/anthracycline based chemotherapy regimen. […] To treat this patient's disease and overcome the rise in FLT3 ligand that has been documented to occur after successive rounds of chemotherapy, even in FLT3-wildtype patients, this patient was provided oral crenolanib besylate in combination with salvage chemotherapy for relapsed/refractory patients. […] The patient was treated with salvage chemotherapy, comprised of five days of fludarabine, five days of cytarabine, 3 days of idarubicin, and G-CSF, followed by 100 mg of crenolanib besylate three times daily starting on day 7 of treatment.
# The study was designed to determine the safety of crenolanib when combined with standard salvage chemotherapy in patients with relapsed/refractory AML, patients only remained on study for 1-2 cycles of induction crenolanib combination therapy.
# [3] = Consolidation (D237), HiDAC + crenolanib
# [4] = Induction (D53), induction chemotherapy + crenolanib
# [5] = Maintenance (D294), single agent crenolanib besylate
# [6] = Maintenance (D406), completion of single agent maintenance
smiles,measurement,setting,value
"CC1(COc2ccc3c(c2)ncn3-c2ccc3cccc(N4CCC(N)CC4)c3n2)COC1 [crenolanib, 4-Piperidinamine, 1-[2-[5-[(3-methyl-3-oxetanyl)methoxy]-1H-benzimidazol-1-yl]-8-quinolinyl]]",Variant allele frequency FLT3 D835E,[1]; [3],0%
same,Variant allele frequency DNMT3A R882H,[1]; [3],1%
same,Variant allele frequency FLT3 D839G,[1]; [3],1%
same,Variant allele frequency KRAS G12D,[1]; [3],1%
same,Variant allele frequency NRAS G13V,[1]; [3],0%
same,Variant allele frequency FLT3 N841K,[1]; [3],0%
same,Variant allele frequency FLT3 A680V,[1]; [3],1%
same,Variant allele frequency FLT3 ITD,[1]; [3],0%
same,Variant allele frequency DNMT3A R882C,[1]; [3],5%
same,Variant allele frequency NPM1 dupTCTG,[1]; [3],0%
same,Variant allele frequency FLT3 D835E,[1]; [4],1%
same,Variant allele frequency DNMT3A R882H,[1]; [4],3%
same,Variant allele frequency FLT3 D839G,[1]; [4],3%
same,Variant allele frequency KRAS G12D,[1]; [4],0%
same,Variant allele frequency NRAS G13V,[1]; [4],0%
same,Variant allele frequency FLT3 N841K,[1]; [4],0%
same,Variant allele frequency FLT3 A680V,[1]; [4],0%
same,Variant allele frequency FLT3 ITD,[1]; [4],3%
same,Variant allele frequency DNMT3A R882C,[1]; [4],0%
same,Variant allele frequency NPM1 dupTCTG,[1]; [4],4%
same,Variant allele frequency FLT3 D835E,[1]; [5],0%
same,Variant allele frequency DNMT3A R882H,[1]; [5],0%
same,Variant allele frequency FLT3 D839G,[1]; [5],0%
same,Variant allele frequency KRAS G12D,[1]; [5],0%
same,Variant allele frequency NRAS G13V,[1]; [5],0%
same,Variant allele frequency FLT3 N841K,[1]; [5],0%
same,Variant allele frequency FLT3 A680V,[1]; [5],0%
same,Variant allele frequency FLT3 ITD,[1]; [5],0%
same,Variant allele frequency DNMT3A R882C,[1]; [5],6%
same,Variant allele frequency NPM1 dupTCTG,[1]; [5],0%
same,Variant allele frequency FLT3 D835E,[1]; [6],0%
same,Variant allele frequency DNMT3A R882H,[1]; [6],0%
same,Variant allele frequency FLT3 D839G,[1]; [6],0%
same,Variant allele frequency KRAS G12D,[1]; [6],0%
same,Variant allele frequency NRAS G13V,[1]; [6],0%
same,Variant allele frequency FLT3 N841K,[1]; [6],0%
same,Variant allele frequency FLT3 A680V,[1]; [6],0%
same,Variant allele frequency FLT3 ITD,[1]; [6],0%
same,Variant allele frequency DNMT3A R882C,[1]; [6],8%
same,Variant allele frequency NPM1 dupTCTG,[1]; [6],0%
same,remaining FLT3 and KRAS mutations,[1]; after approximately two months of single agent maintenance therapy,cleared
same,remaining FLT3 and KRAS mutations,[1]; at the completion of maintenance therapy,remained absent
same,all variant FLT3 clones,[1]; by day 79 into maintenance,cleared
same,mutant containing cancer cell populations (FIGS. 2-4 scatter plots),[1]; diagnosis versus 35 days following the start of induction,eliminated the vast majority
same,NPM1 and FLT3-ITD,[1]; following consolidation,clearance
same,variant FLT3 and FLT3 activating mutations (FIG. 1),"[1]; induction chemotherapy with crenolanib, HiDAC consolidation with crenolanib, single agent crenolanib maintenance",eliminated
same,patient status,"[2]; at last follow up, after a single cycle",remains alive and in remission
same,"mutations in BCOR, NRAS, and U2AF1","[2]; day 32, bulk DNA sequencing methods",not detected
same,response,"[2]; day 32, crenolanib combination therapy",complete morphological remission
same,bone marrow blasts,"[2]; person, baseline 17%, day 32, fludarabine, cytarabine, idarubicin, G-CSF, then 100 mg crenolanib besylate three times daily from day 7",less than 5%
